Assay results from US12410064B2, “Preparation of soluble compounds” (EXCITON PHARMA CORP., priority 2019, dated 2025).
“And” between values parts separate entries of the source, which are not always exact repeats. Equal entries are not always repeated.

Key:
[1] = tested on: Staphylococcus aureus biofilms; assay: S. aureus antibiofilm assay (log-reduction vs no treatment control); type: cell-based
Procedure: Briefly, S. aureus biofilms were grown on sterile gauze at 37° C. for 72 hours (gauze was re-inoculated with S. aureus at 24 hours and 48 hours). After incubation, the gauze was rinsed with sterile water and placed onto Mueller Hinton agar (MHA) plates. The compound was dissolved in aqueous (RO water) solution at a concentration of 0.4 mg Ag/cm^2 or 10 mg Ag per 5×5 cm testing and placed on top of the gauze. The plates were incubated for 6 hours at 37° C. The remaining solution containing metal complexes was removed from the biofilm and the biofilm/gauze was neutralized in 10 mL of sodium thioglycolate. The bacteria were agitated to remove them from the gauze and the resulting bacterial suspensions were diluted and spread onto MHA plates which were incubated for 18-24 hours at 37° C. and the resulting viable bacterial colonies were enumerated. The log-reduction of S. aureus was calculated relative to the reduction achieved in the “no treatment” negative control samples. Results represent the average of triplicate data. The assay was repeated upon the aged solid state at a shelf life of 5 months (FIGS. 4A-B).

[2] = Acid-base titration curve (equivalence points); type: physicochemical; settings: FIG. 1, inflection points of the curve; listed as JN300118-1
Excerpt: In the various embodiments, sufficient concentrations of the acid or base to transform the first oxidized metal complex into the desired second oxidized metal complex may be determined using acid-base titration. As used herein, the term “acid-base titration” refers to a method of quantitative analysis for determining the concentration of an acid or base by exactly neutralizing it with a standard solution of base or acid having known concentration. A pH indicator may be used to monitor the progress of the acid-base reaction. An acid-base titration curve may be plotted on a graph to show the changes in the pH upon addition of acid or base. As shown for example in FIG. 1, the curve falls near equivalence points (inflection points of the curve). The quantity of acid or base required to reach each equivalence point (e.g., FIG. 1, pH 11.3, 5.7) may be identified from the graph.
At each equivalence point or corresponding pH, the first oxidized metal complex may be transformed into a different second oxidized metal complex. […]

[3] = Solid state stability under ambient conditions, analysed by UV-Vis spectroscopy; type: physicochemical; settings: room temperature, ambient air and light, five months
Procedure: Stability evaluation of each compound in its solid state stored under ambient conditions was performed.

[4] = S. aureus biofilm on gauze, 0.4 mg Ag/cm^2 in RO water, 6 hours at 37° C.

Compound: [Ag+].[Ag+].[Ag+].[Ag+].[Ag+].[O-][I+]([O-])([O-])([O-])([O-])[O-] [JN111018-3, Pentasilver periodate, reference compound]
- antimicrobial activity [1, 4]: antimicrobial activity, yield

Compound: K4-1H1-4Ag(IO5OH)2O [JN301118-1]
- equivalence point of acid-base titration curve [2]: 11.3 pH and 5.7 pH

Compound: K5-3H0-2Ag(IO5OH)2 [JN150618-3]
- antimicrobial activity [1, 4]: bright red crystals, antimicrobial activity

Compound: Sodium diperiodatoargentate Na5Ag(IO5OH)216H2O [JN091118-2, reference compound]
- antimicrobial activity ([1]; S. aureus biofilm as Example 2, but semi-solid formulation (about 0.083 g) dissolved into RO water (1 mL), 0.4 mg Ag/cm^2): Atkinson, antimicrobial activity, yield

Compound: diperiodatoargentate potassium salt [JN300518-2a]
- solid state stability [3]: bright red crystals, solid state stability,
